PubChem BioAssay (NCI)
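How tested: cells in 96-well plates exposed to compound for 48 hours at five concentrations. GI50 marks 50% less growth. TGI marks complete inhibition of growth.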

How the values were obtained:
Assay in all cases: growth of human tumour cells (NCI), 48 h
[1] = test system: SK-MEL-5 melanoma
[2] = test system: OVCAR-5 ovarian
[3] = test system: UO-31 renal
[4] = test system: NCI-H522 lung
[5] = test system: IGROV1 ovarian
[6] = test system: BT-549 breast
[7] = test system: UACC-62 melanoma
[8] = test system: DU-145 prostate
[9] = test system: SNB-75 CNS
[10] = test system: SN12C renal
[11] = test system: SK-OV-3 ovarian
[12] = test system: NCI-H460 lung
[13] = test system: A549 NSCLC
[14] = test system: RPMI-8226 leukemia
[15] = test system: HCT-116 colon
[16] = test system: HOP-92 NSCLC
[17] = test system: K-562 leukemia
[18] = test system: HCC-2998 colon
[19] = test system: TK-10 renal
[20] = test system: HOP-62 NSCLC
[21] = test system: M14 melanoma
[22] = test system: COLO 205 colon
[23] = test system: SF-539 CNS
[24] = test system: MDA-MB-435
[25] = test system: MDA-MB-231 breast
[26] = test system: SR leukemia
[27] = test system: SNB-19 CNS
[28] = test system: SF-295 CNS
[29] = test system: SK-MEL-2 melanoma
[30] = test system: OVCAR-8 ovarian
[31] = test system: NCI-H226 lung
[32] = test system: HT29 colon
[33] = test system: PC-3 prostate
[34] = test system: HL-60(TB) leukemia
[35] = test system: SW-620 colon
[36] = test system: OVCAR-3 ovarian
[37] = test system: UACC-257 melanoma
[38] = test system: OVCAR-4 ovarian
[39] = test system: MDA-MB-468 breast
[40] = test system: HS 578T breast
[41] = test system: T-47D breast
[42] = test system: SF-268 CNS
[43] = test system: RXF 393 renal
[44] = test system: SK-MEL-28 melanoma
[45] = test system: MOLT-4 leukemia
[46] = test system: LOX IMVI melanoma
[47] = test system: MALME-3M melanoma
[48] = test system: 786-0 renal
[49] = test system: EKVX NSCLC
[50] = test system: MCF7 breast
[51] = test system: ACHN renal
[52] = test system: CCRF-CEM leukemia
[53] = test system: KM12 colon
[54] = test system: NCI-H23 lung
[55] = test system: A498 renal
[56] = test system: HCT-15 colon
[57] = test system: CAKI-1 renal
[58] = test system: U251 CNS

## COc1cc(NC(=O)c2cc(-c3ccc(F)cc3F)ccc2O)cc(OC)c1OC
[1]
  GI50: 3.16 µM
  TGI: 10.6 µM
[2]
  GI50: 19.3 µM
  TGI: 43.4 µM
[3]
  GI50: 5.24 µM
  TGI: 23.5 µM
[4]
  GI50: 3.19 µM
  TGI: 13.7 µM
[5]
  GI50: 10.4 µM
  TGI: 30.9 µM
[6]
  GI50: 5.29 µM
  TGI: 22.6 µM
[7]
  GI50: 3.52 µM
  TGI: 13.4 µM
[8]
  GI50: 13.9 µM
  TGI: 39.4 µM
[9]
  GI50: 6.57 µM
  TGI: 23.8 µM
[10]
  GI50: 6.12 µM
  TGI: 22.1 µM
[11]
  GI50: 8.43 µM
  TGI: 23.9 µM
[12]
  GI50: 6.51 µM
  TGI: 20.2 µM
[13]
  GI50: 12.7 µM
  TGI: 35.1 µM
[14]
  GI50: 3.4 µM
  TGI: 45.9 µM
[15]
  GI50: 13.7 µM
  TGI: 32.2 µM
[16]
  GI50: 3.49 µM
  TGI: 15.9 µM
[17]
  GI50: 5.1 µM
  TGI: > 100 µM
[18]
  GI50: 11.9 µM
  TGI: 25.4 µM
[19]
  GI50: 12 µM
  TGI: 45.4 µM
[20]
  GI50: 13.4 µM
  TGI: 33.2 µM
[21]
  GI50: 15.3 µM
  TGI: 31.8 µM
[22]
  GI50: 18.2 µM
  TGI: 34.4 µM
[23]
  GI50: 12.4 µM
  TGI: 26.5 µM
[24]
  GI50: 6.27 µM
  TGI: 19.4 µM
[25]
  GI50: 18.8 µM
  TGI: 51.2 µM
[26]
  GI50: 4.2 µM
  TGI: 40.5 µM
[27]
  GI50: 6.63 µM
  TGI: 29.5 µM
[28]
  GI50: 15.6 µM
  TGI: 32.6 µM
[29]
  GI50: 3.01 µM
  TGI: 13.9 µM
[30]
  GI50: 13 µM
  TGI: > 100 µM
[31]
  GI50: 6.92 µM
  TGI: 30 µM
[32]
  GI50: 17.9 µM
  TGI: 33.6 µM
[33]
  GI50: 12.5 µM
  TGI: 61.5 µM
[34]
  GI50: 6.09 µM
  TGI: > 100 µM
[35]
  GI50: 14.2 µM
  TGI: 29 µM
[36]
  GI50: 5.49 µM
  TGI: 32.4 µM
[37]
  GI50: 10.2 µM
  TGI: 22.4 µM
[38]
  GI50: 4.45 µM
  TGI: 31.4 µM
[39]
  GI50: 3.98 µM
  TGI: 17 µM
[40]
  GI50: 5.2 µM
  TGI: 26.9 µM
[41]
  GI50: 2.73 µM
  TGI: 9.31 µM
[42]
  GI50: 6.03 µM
  TGI: 28.3 µM
[43]
  GI50: 2.86 µM
  TGI: 16.8 µM
[44]
  GI50: 8.98 µM
  TGI: 22.3 µM
[45]
  GI50: 5.9 µM
  TGI: 36.4 µM
[46]
  GI50: 13 µM
  TGI: 27.3 µM
[47]
  GI50: 11.4 µM
  TGI: 25.9 µM
[48]
  GI50: 19.4 µM
  TGI: 46.6 µM
[49]
  GI50: 12.3 µM
  TGI: 48.3 µM
[50]
  GI50: 9.64 µM
  TGI: 43.1 µM
[51]
  GI50: 16.2 µM
  TGI: 66.3 µM
[52]
  GI50: 6.23 µM
  TGI: 29.7 µM
[53]
  GI50: 10.2 µM
  TGI: 23.3 µM
[54]
  GI50: 4.75 µM
  TGI: 18.9 µM
[55]
  GI50: 12.1 µM
  TGI: 25.8 µM
[56]
  GI50: 5.63 µM
  TGI: 24.9 µM
[57]
  GI50: 7.67 µM
  TGI: 38.8 µM
[58]
  GI50: 11 µM
  TGI: 27.1 µM
